Experimental data as given in US9221809B2 (MERCK SHARP & DOHME CORP., priority 2011, dated 2015).
Structures can show the parent of a compound that is named as a salt.

biological target: IRAK4 (Homo sapiens (Human), UniProt Q9NWZ3); experiment: IRAK4 kinase activity, IMAP fluorescence polarization assay; format: biochemical; conditions: 100 μM ATP, 0.5 nM GST tagged IRAK4; read-out: IRAK4 IC50
Method in brief: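 Fluorescence polarization (IMAP nanoparticle binding of phosphopeptide) reports activity after a 30 min, 25 °C reaction. Conditions: 100 μM ATP, 0.5 nM GST-IRAK4, 100 nM fluorescent peptide, 10 mM Tris pH 7.2, 1 mM MgCl2, 1 mM DTT, 0.01% Tween 20.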

Chain of IRAK4 (Q9NWZ3 whole entry): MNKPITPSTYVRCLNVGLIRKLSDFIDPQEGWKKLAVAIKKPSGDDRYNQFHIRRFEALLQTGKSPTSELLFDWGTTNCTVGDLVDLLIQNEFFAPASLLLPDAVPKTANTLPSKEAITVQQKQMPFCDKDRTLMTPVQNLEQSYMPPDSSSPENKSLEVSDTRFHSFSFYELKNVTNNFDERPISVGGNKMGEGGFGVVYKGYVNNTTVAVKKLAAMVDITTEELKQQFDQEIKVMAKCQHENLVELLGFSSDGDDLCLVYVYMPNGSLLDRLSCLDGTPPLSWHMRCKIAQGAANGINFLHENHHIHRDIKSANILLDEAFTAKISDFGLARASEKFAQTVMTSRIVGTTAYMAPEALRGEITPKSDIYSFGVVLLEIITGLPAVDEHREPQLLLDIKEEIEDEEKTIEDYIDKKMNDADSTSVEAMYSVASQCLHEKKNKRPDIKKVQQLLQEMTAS

| SMILES | IC50 |
| --- | --- |
| O=c1[nH]c(N2CCCCC2)nc(N[C@@H]2C[C@H](CO)[C@@H](O)[C@H]2O)c1-c1nc(-c2ccc(F)cc2)cs1 [Example 59, 6-(((1R,2S,3R,4R)-2,3-Dihydroxy-4-(hydroxymethyl)cyclopentyl)amino)-5-(4-(4-fluorophenyl)thiazol-2-yl)-2-(piperidin-1-yl)pyrimidin-4(3H)-one HCl] | 22.5 nM |
| O=c1[nH]c(OC2CCC2)nc(N[C@@H]2C[C@H](CO)[C@@H](O)[C@H]2O)c1-c1nc2ccccc2s1 [Example 15, 5-(Benzo[d]thiazol-2-yl)-2-cyclobutoxy-6-((1R,2S,3R,4R)-2,3-dihydroxy-4-(hydroxymethyl)cyclopentylamino)pyrimidin-4(3H)-one.HCl] | 1690 nM |
| C[C@@]1(O)[C@H](O)[C@@H](CO)C[C@H]1Nc1nc(NC2CCC2)[nH]c(=O)c1-c1nc2ccccc2s1 [Example 41, 5-(Benzo[d]thiazol-2-yl)-2-(cyclobutylamino)-6-((1R,2S,3R,4R)-2,3-dihydroxy-4-(hydroxymethyl)-2-methylcyclopentylamino)pyrimidin-4(3H)-one.HCl] | 459 nM |
| O=c1[nH]c(NC2CCC2)nc(N[C@@H]2CC[C@@H](O)[C@H]2O)c1-c1nc2ccccc2s1 [Example 48, 5-(Benzo[d]thiazol-2-yl)-2-(cyclobutylamino)-6-((1R,2S,3R)-2,3-dihydroxycyclopentylamino)pyrimidin-4(3H)-one.HCl] | 2260 nM |
| C[C@H]1C[C@@H](Nc2nc(N3CCOCC3)[nH]c(=O)c2-c2nc3ccccc3s2)[C@H](O)[C@@H]1O [Example 47, 5-(Benzo[d]thiazol-2-yl)-6-((1R,2S,3R,4S)-2,3-dihydroxy-4-methylcyclopentylamino)-2-morpholinopyrimidin-4(3H)-one.HCl] | 23 nM |
| O=c1[nH]c(N2CCOCC2)nc(N[C@@H]2CCCNC2)c1-c1ncc(F)cn1 [Example 220, (R)-5-fluoro-2′-morpholino-6′-(piperidin-3-ylamino)-[2,5′-bipyrimidin]-4′(3′H)-one] | 220 nM |

The remaining lines, values ahead:

| IC50 | SMILES |
| --- | --- |
| 4500 nM | O=c1[nH]c(N2CCOCC2)nc(N[C@@H]2CCCNC2)c1-c1nc2cccc(C3CC3)c2s1 [Example 344, 5-(7-cyclopropyl-1,3-benzothiazol-2-yl)-2-(morpholin-4-yl)-6-[[(3R)-piperidin-3-yl]amino]-3,4-dihydropyrimidin-4-one trifluoroacetic acid] |
| 5400 nM | N[C@@H]1CCCC[C@H]1Nc1cccc2sc(-c3c(N[C@@H]4CCCNC4)nc(N4CCOCC4)[nH]c3=O)nc12 (racemic) [Example 352, 5-(4-[[(trans, rac)-2-aminocyclohexyl]amino]-1,3-benzothiazol-2-yl)-2-(morpholin-4-yl)-6-[[(3R)-piperidin-3-yl]amino]-3,4-dihydropyrimidin-4-one] |

same assay, conditions: 100 μM ATP; read-out: IC50

| IC50 | SMILES |
| --- | --- |
| 780 nM | CC(O)CNc1nc(N2CCOCC2)[nH]c(=O)c1-c1nc2ccccc2s1 (stereo not shown) [Example 265, 5-(benzo[d]thiazol-2-yl)-6-(2-hydroxypropylamino)-2-morpholino-pyrimidin-4(3H)-one] |
| 2500 nM | O=c1[nH]c(N[C@H]2c3ccccc3C[C@H]2O)nc(N[C@@H]2CCCNC2)c1-c1nc2ccccc2s1 [Example 298, 5-(1,3-benzothdazol-2-yl)-2-[[(1S,2R)-2-hydroxy-2,3-dihydro-1H-inden-1-yl]amino]-6-[[(3R)-piperidin-3-yl]amino]pyrimidin-4-ol; formic acid] |
| 250 nM | CN(c1nc(N[C@@H]2CCCNC2)c(-c2nc3ccccc3s2)c(=O)[nH]1)[C@H](CO)c1ccccc1 [Example 310, 5-(1,3-benzothiazol-2-yl)-2-[[(1S)-2-hydroxy-1-phenylethyl](methyl)amino]-6-[[(3R)-piperidin-3-yl]amino]-3,4-dihydropyrimidin-4-one; trifluoroacetic acid] |
| 512 nM | O=c1[nH]c(N2CCOCC2)nc(N[C@@H]2CCCNC2)c1-c1ccc(C2CC2)cn1 [Example 224, (R)-5-(5-cyclopropylpyridin-2-yl)-2-morpholino-6-(piperidin-3-ylamino)pyrimidin-4(3H)-one] |
| 14 nM | O=c1[nH]c(N2CCOCC2)nc(N[C@H]2CNCC[C@@H]2F)c1-c1nc2ccccc2s1 [Example 213, 5-(benzo[d]thiazol-2-yl)-6-(((3S,4S)-4-fluoropiperidin-3-yl)amino)-2-morpholinopyrimidin-4(3H)-one] |
| 27 nM | O=c1[nH]c(N2CCC3(CCN(Cc4ccccc4)C3)C2)nc(N[C@@H]2CCCNC2)c1-c1nc2ccccc2s1 (stereo partly drawn) [Example 327, 5-(1,3-benzothiazol-2-yl)-2-[7-benzyl-2,7-diazaspiro[4.4]nonan-2-yl]-6-[[(3R)-piperidin-3-yl]amino]-3,4-dihydropyrimidin-4-one; trifluoroacetic acid] |
| 450 nM | O=c1[nH]c(NCCO)nc(N[C@@H]2CCCNC2)c1-c1nc2ccccc2s1 [Example 311, 5-(1,3-benzothiazol-2-yl)-2-[(2-hydroxyethyl)amino]-6-[[(3R)-piperidin-3-yl]amino]-3,4-dihydropyrimidin-4-one; trifluoroacetic acid] |

same assay, conditions: 100 μM ATP; read-out: IRAK4 IC50

| IC50 | SMILES |
| --- | --- |
| 3460 nM | O=c1[nH]c(N2CCOCC2)nc(N[C@@H]2CCCNC2)c1-c1cncc(-n2cccc2)n1 [Example 198] |
| 6 nM | COc1ccnc(N2CCN(c3nc(N[C@@H]4CCCNC4)c(-c4nc5ccccc5s4)c(=O)[nH]3)CC2)c1 [Example 142, (R)-5-(benzo[d]thiazol-2-yl)-2-(4-(4-methoxypyridin-2-yl)piperazin-1-yl)-6-(piperidin-3-ylamino)pyrimidin-4(3H)-one] |

same assay, conditions: unit inferred; 100 μM ATP; read-out: IRAK4 IC50

| IC50 | SMILES |
| --- | --- |
| 225 nM | CS(=O)(=O)N1CCCN(c2nc(N[C@@H]3C[C@H](CO)[C@@H](O)[C@H]3O)c(-c3nc4ccccc4s3)c(=O)[nH]2)CC1 [Example 77, 5-(benzo[d]thiazol-2-yl)-6-((1R,2S,3R,4R)-2,3-dihydroxy-4-(hydroxymethyl)cyclopentylamino)-2-(4-(methylsulfonyl)-1,4-diazepan-1-yl)pyrimidin-4(3H)-one] |
| 19.4 nM | Cn1cc(C2CCN(c3nc(N[C@@H]4C[C@H](CO)[C@@H](O)[C@H]4O)c(-c4nc5ccccc5s4)c(=O)[nH]3)CC2)nn1 [Example 73, 5-(benzo[d]thiazol-2-yl)-6-((1R,2S,3R,4R)-2,3-dihydroxy-4-(hydroxymethyl)cyclopentylamino)-2-(4-(1-methyl-1H-1,2,3-triazol-4-yl)piperidin-1-yl)pyrimidin-4(3H)-one] |
| 6.2 nM | O=c1[nH]c(N2CCC(c3cncnc3)CC2)nc(N[C@@H]2C[C@H](CO)[C@@H](O)[C@H]2O)c1-c1nc2ccccc2s1 [Example 64, 5-(benzo[d]thiazol-2-yl)-6-((1R,2S,3R,4R)-2,3-dihydroxy-4-(hydroxymethyl)cyclopentylamino)-2-(4-(pyrimidin-5-yl)piperidin-1-yl)pyrimidin-4(3H)-one] |
| 3.7 nM | O=c1[nH]c(N2CCN(c3cccnc3)CC2)nc(N[C@@H]2C[C@H](CO)[C@@H](O)[C@H]2O)c1-c1nc2ccccc2s1 [Example 63, 5-(benzo[d]thiazol-2-yl)-6-((1R,2S,3R,4R)-2,3-dihydroxy-4-(hydroxymethyl)cyclopentylamino)-2-(4-(pyridin-3-yl)piperazin-1-yl)pyrimidin-4(3H)-one] |
| 7.2 nM | O=c1[nH]c(N2CCc3ccncc3C2)nc(N[C@@H]2C[C@H](CO)[C@@H](O)[C@H]2O)c1-c1nc2ccccc2s1 [Example 65, 5-(benzo[d]thiazol-2-yl)-2-(3,4-dihydro-2,7-naphthyridin-2(1H)-yl)-6-((1R,2S,3R,4R)-2,3-dihydroxy-4-(hydroxymethyl)cyclopentylamino)pyrimidin-4(3H)-one] |
